Measured values taken from US12351565B2, “Aromatic compound and preparation method therefor and use thereof” (SHANGHAI JIANHE PHARMACEUTICAL & TECHNOLOGY CO. LTD., priority 2018, dated 2025).

What was measured:
hERG potassium channel = target: T1, hERG potassium channel (Homo sapiens, UniProt Q12809); assay: hERG potassium channel inhibition experiment (automatic patch clamp, CHO-hERG cells); format: cell-based; conditions: Qpatch, highest tested concentration 40 μM, read-out: IC50, blocking effect on the hERG potassium current
T1 construct: expressed in transfected cells
T1 sequence (Q12809 whole entry): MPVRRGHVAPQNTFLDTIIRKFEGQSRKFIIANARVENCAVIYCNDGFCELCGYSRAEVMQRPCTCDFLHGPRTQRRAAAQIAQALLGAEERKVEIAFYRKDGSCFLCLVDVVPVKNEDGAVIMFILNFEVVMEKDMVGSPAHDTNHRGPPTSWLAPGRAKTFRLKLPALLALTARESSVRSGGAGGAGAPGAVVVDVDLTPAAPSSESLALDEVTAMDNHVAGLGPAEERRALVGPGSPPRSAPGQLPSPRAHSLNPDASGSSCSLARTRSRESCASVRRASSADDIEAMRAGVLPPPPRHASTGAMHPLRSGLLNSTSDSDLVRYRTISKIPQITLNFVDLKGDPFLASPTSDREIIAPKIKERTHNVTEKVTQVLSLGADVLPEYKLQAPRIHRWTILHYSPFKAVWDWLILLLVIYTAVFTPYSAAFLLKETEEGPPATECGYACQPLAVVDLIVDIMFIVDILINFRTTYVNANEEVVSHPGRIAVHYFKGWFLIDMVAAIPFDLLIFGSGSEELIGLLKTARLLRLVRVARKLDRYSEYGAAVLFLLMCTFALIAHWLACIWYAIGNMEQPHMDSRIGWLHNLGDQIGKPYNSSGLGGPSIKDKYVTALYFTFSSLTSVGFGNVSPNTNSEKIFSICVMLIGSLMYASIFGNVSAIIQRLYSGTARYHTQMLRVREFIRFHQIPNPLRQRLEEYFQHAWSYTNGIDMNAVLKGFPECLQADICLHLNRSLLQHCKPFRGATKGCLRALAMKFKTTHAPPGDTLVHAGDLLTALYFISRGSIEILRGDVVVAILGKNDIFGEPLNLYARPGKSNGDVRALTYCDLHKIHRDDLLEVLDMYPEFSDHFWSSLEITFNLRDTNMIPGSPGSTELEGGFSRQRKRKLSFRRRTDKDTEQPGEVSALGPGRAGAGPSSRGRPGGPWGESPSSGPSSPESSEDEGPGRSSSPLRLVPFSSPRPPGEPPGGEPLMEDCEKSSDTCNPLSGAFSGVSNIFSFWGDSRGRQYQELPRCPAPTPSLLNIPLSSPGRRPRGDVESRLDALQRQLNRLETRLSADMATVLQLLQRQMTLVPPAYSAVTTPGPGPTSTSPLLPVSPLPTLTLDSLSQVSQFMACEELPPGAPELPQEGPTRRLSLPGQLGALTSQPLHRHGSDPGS
Method: Fully automatic patch clamps were used to test the blocking effect of the compounds of the present invention on the hERG potassium current on a stable cell line transfected with hERG potassium channels.
CHO-hERG cells were cultured in 175 cm^2 culture flask. When the cell grew to 60-80% confluence, the culture medium was removed. The cells were washed with 7 ml PBS (Phosphate Buffered Saline) once, and then 3 ml Detachin was added to digest.
After the digestion was completed, 7 ml culture medium was added to neutralize. The mixture was centrifuged, and after the supernatant was removed, 5 ml culture medium was added to resuspend to ensure the cell density was 2×10^6-5×10^6/ml.
Single-cell high-impedance sealing and whole-cell mode formation were all automatically completed by using the Qpatch instrument. After the recording mode was obtained, the cell was clamped at −80 millivolts. Before +40 millivolt depolarization stimulation for 5 seconds was given, −50 millivolt pre-voltage for 50 millisecond was first given, then repolarized to −50 millivolt for 5 seconds, and then returned to −80 millivolt. This voltage stimulus was applied every 15 seconds. After recording for 2 min, extracellular fluid was given, and recording was conducted for 5 min, and then the dosing process started. The compound concentration started from the lowest test concentration, and each test concentration was given for 2.5 min. […] At least 3 cells per concentration (n≥3) were tested.
20 mM compound mother liquor was diluted with extracellular fluid. 5 μL of 20 mM compound mother liquor was taken and added into 2495 μL extracellular fluid, so that it was diluted 500 times to 40 μM, and was then serially diluted 3 times in an extracellular fluid containing 0.2% DMSO to obtain the final concentration to be tested.
The highest tested concentration was 40 μM, and the concentrations were in order as follows: 40, 13.33, 4.44, 1.48, 0.49, 0.16 μM, totally 6 concentrations.
Experimental data were analyzed by XLFit software.

C57 mice = assay: Forced swimming experiment, oral administration to mice; format: in vivo; conditions: inhibition of immobility time, C57 mice
Summary of the method: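 Male C57 mice (6 weeks) dosed once orally at 20 mg/kg in 0.9% NaCl, tested 1 h and 24 h later after a 10 min pre-swim the day before. Immobility over the last 4 min of a 6 min swim (water 23-25° C); inhibition rate (%) calculated against blank group at each time.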

[1] = In vivo pharmacokinetic experiment in rats; conditions: SD rats
Method: Healthy male SD rats were randomly divided into groups with 3 rats in each group, and the test compounds were administrated intragastrically or by intravenous injection. See Table 8 below for specific arrangements:
Each test compound was dissolved in physiological saline to prepare a certain concentration of solution for administration.
One day before administration, the rats were fasted and allowed to drink freely for 12-14 h. The rats were fed 4 h after administration. 0.030 mL of blood was took from each animal each time through the orbit, and anticoagulated with EDTAK2 anticoagulation. The collection time points were as follows: in PO group, 5 min, 10 min, 15 min, 30 min, 1 h, 2 h, 4 h, 6 h, 8 h, 24 h after administration of test substance; in IV group, 2 min, 5 min, 15 min, 30 min, 1 h, 2 h, 4 h, 6 h, 8 h, 24 h after administration of test substance. After blood samples were collected, they were placed on ice and centrifuged to separate the plasma within 30 minutes (centrifugation conditions: 5000 rpm, 10 minutes, 4° C.). The sample were stored at −80° C. before analysis.

[2] = male, rat, iv, 5 mg/kg i.v., plasma
[3] = male, rat, po, 20 mg/kg p.o., plasma

In the case of Cl.N[C@]1(c2ccc(C(F)(F)F)cc2)CCC[C@H](O)C1=O [Compound 51, (2S,6S)-2-amino-6-hydroxy-2-(4-(trifluoromethyl)phenyl)cyclohexane-1-one hydrochloride], the IC50 (hERG potassium channel) is reported as > 40 µM, the “1 h inhibition rate” value (C57 mice; forced swimming 1 h after single oral (intragastric) 20 mg/kg) is reported as 66.9 ± 0.3% and the “24 h inhibition rate” value (C57 mice; forced swimming 24 h after single oral (intragastric) 20 mg/kg) is reported as 38.6 ± 2.1%. For the same compound, the AUC0-t ([1]; 5 mg/kg i.v., plasma) was 19871 ngh/mL, the “AUC0-∞” value ([1]; 5 mg/kg i.v., plasma) was 20688 ngh/mL and the F ([1]; 20 mg/kg p.o.) was 86%. The AUC0-t ([1]; 20 mg/kg p.o., plasma) was 68383 ngh/mL, the “AUC0-∞” value ([1]; 20 mg/kg p.o., plasma) was 70298 ngh/mL and the MRT [1, 2] was 6.15 h. It also gave a half-life [1, 2] of 336 min, a clearance ([1]; male, rat, plasma, iv, 5 mg/kg i.v.) of 4.03 mL/min/kg and a Vd ([1]; male, rat, plasma, iv, 5 mg/kg i.v., read-out: Vss) of 1.49 L/kg. It also gave a Cmax [1, 3] of 9350 ng/mL, an MRT [1, 3] of 6.21 h and a Tmax [1, 3] of 19.8 min. For the same compound, the half-life [1, 3] was 284 min.
